Data as given in patent US6964983B2, “Compounds that modulate PPAR activity and methods for their preparation” (Warner-Lambert Company, LLC, priority 2002, dated 2005).
Where two headings read alike, the source gives them in different places.

Legend:
hPPARβ = molecular target: T1, hPPARβ (Homo sapiens, UniProt Q03181); experiment: Transient transfection assay in HepG2 cells, Gal4-hPPARβ chimeric receptor, luciferase reporter; assay type: cell-based
T1 sequence (Q03181 171-441 limits assumed): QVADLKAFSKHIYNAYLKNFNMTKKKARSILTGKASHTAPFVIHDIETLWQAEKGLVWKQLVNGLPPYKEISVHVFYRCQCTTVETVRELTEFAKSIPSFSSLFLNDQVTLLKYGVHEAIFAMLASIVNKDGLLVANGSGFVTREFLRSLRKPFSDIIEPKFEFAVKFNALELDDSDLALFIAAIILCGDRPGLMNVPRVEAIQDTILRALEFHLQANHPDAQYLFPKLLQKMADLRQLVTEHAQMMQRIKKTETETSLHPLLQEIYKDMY
Protocol: 1. Test A. Transient Transfections Assay using the HepG2 Hepatoma Cell Line.
HepG2 cells were transiently transfected with an expression plasmids encoding hPPARα, hPPARβ or mPPARγ chimeric receptors and a reporter containing the yeast upstream activating sequence (UAS) upstream of the viral E1B promoter controlling a luciferase reporter gene. In addition, the plasmid pRSVβ-gal was used to control for transfection efficiency. HepG2 cells were grown in DMEM supplemented with 10% FBS and 1 μM non-essential amino acid. On the first day, cells were split into 100 mm dishes at 2.5×10^6/dish and incubated overnight at 37° C./5% CO2. On the second day the cells were transiently transfected with plasmid DNA encoding a chimeric receptor, the luciferase reporter gene; and β-gal. For each 100 mm dish, 15 μg of lucifease reporter (PG5E1b) DNA, 15 μg of Gal4-PPAR chimeric receptor DNA, and 1.5 μg of β-gal plasmid DNA were mixed with 1.4 ml of opti-MEM in the tube. 28 μl of LipoFectamine-2000 reagent was added to 1.4 ml of opti-MEM in the tube, and incubate for 5 min at RT. The diluted Lipofectamine-2000 reagent was combined with the DNA mixture, and incubate for 20 min at RT. After fresh medium was added to each 100 mm dish of cells, 2.8 ml of Lipofectamine2000-DNA mixture was added dropwise to the 100 mm dish containing 14 ml of medium, and incubate 37° C. overnight. On day three cells were trypsinized off the 100 mm dishes and re-plated on 96 well plates. Cells were plated at 2.5×10^4 cells per well in 150 μl of media and 50 μl of compound diluted by media was added. The test compound added were in the range from 50 μM to 50 pM. After addition of compounds, the plates were incubated at 37° C. for 24 hours. Subsequently cells were washed with once with 100 μl of PBS, lysed, and processed for measuring luciferase and β-gal activity using Dual-Light luciferase kit from Tropix ®, according to the manufacturer's recommendations, on an EG&G Bethold MicroLumat LB96P luminometer. EC50 values were obtained using the GraphPad Prism™ program.

[1] = Hep G2-hBeta EC50, 24 hours incubation, read-out: EC50β nM (Group)

Row | SMILES | melting point | EC50 (hPPARβ; [1]) | EC50 (hPPARβ)
1 | COc1cc(OCC(=O)O)c(C)cc1SCc1ccc(-c2c(C)cc(C)cc2C)cc1 [Example 5, [5-Methoxy-2-methyl-4-(2′,4′,6′-trimethyl-biphenyl-4-ylmethylsulfanyl)-phenoxy]-acetic acid] | 141 °C | 1000 to 2000 nM | –
2 | O=C(O)COc1ccc(SCc2ccc(-c3ccc(C(F)(F)F)cc3)cc2)c2c1CCC2 [Example 12, [7-(4′-Trifluoromethyl-biphenyl-4-ylmethylsulfanyl)-indan-4-yloxy]-acetic acid] | 158 to 159 °C | < 300 nM | –
3 | Cc1cc(SCc2ccc(OCc3ccc(C(F)(F)F)cc3)cc2)ccc1OCC(=O)O [Example 15, {2-Methyl-4-[4-(4-trifluoromethyl-benzyloxy)-benzylsulfanyl]-phenoxy}-acetic acid] | 133 °C | < 300 nM | –
4 | O=C(O)COc1ccc(SCc2ccc(-c3ccc(C(F)(F)F)cn3)cc2)c2c1CCC2 [Example 26, {7-[4-(5-Trifluoromethyl-pyridin-2-yl)-benzylsulfanyl]-indan-4-yloxy}-acetic acid] | 220 °C (dec.) | < 300 nM | –
5 | Cc1cc(SCc2ccc(OCc3ccccn3)cc2)ccc1OCC(=O)O [Example 60, {2-Methyl-4-[4-(pyridine-2-ylmethoxy)-benzylsulfanyl]-phenoxy}-acetic acid] | 150 °C | > 5000 nM | –
6 | Cc1cc(SCc2ccc(OCc3ccc(C(F)(F)F)cc3)cc2)c(Cl)cc1OCC(=O)O [Example 61, {5-Chloro-2-methyl-4-[4-(4-trifluoromethyl-benzyloxy)-benzylsulfanyl]-phenoxy}-acetic acid] | 142 to 143 °C | 300 to 500 nM | –
7 | Cc1cc(SCc2ccc(OCc3ccc(C(F)(F)F)cc3)cc2)c2c(c1OCC(=O)O)CCC2 [Example 64, {5-Methyl-7-[4-(4-trifluoromethyl-benzyloxy)-benzylsulfanyl]-indan-4-yloxy}-acetic acid] | 165 to 167 °C | > 5000 nM | –
8 | CC(C)(C)c1ccc(COc2ccc(CSc3ccc(OCC(=O)O)c4c3CCC4)cc2)cc1 [Example 67, {7-[4-(4-tert-Butyl-benzyloxy)-benzylsulfanyl]-indan-4-yloxy}-acetic acid] | 152 to 153 °C | – | < 300 nM

Continued, in another order:

Row | melting point | EC50 (hPPARβ; [1]) | SMILES | EC50 (hPPARβ)
9 | 164 °C | 2000 to 5000 nM | Cc1cc(SCc2ccc(OCc3ccc(Cl)cc3)cc2)ccc1OCC(=O)O [Example 58, {4-[4-(4-Chloro-benzyloxy)-benzylsulfanyl]-2-methyl-phenoxy}-acetic acid] | –
10 | 153 to 155 °C | > 5000 nM | O=C(O)COc1ccc(SCc2ccc(OCc3ccc(F)cc3)cc2)c2c1CCC2 [Example 65] | –
11 | 158 to 160 °C | > 5000 nM | O=C(O)COc1ccc(SCc2ccc(OCc3ccc(F)cc3F)cc2)c2c1CCC2 [Example 66, {7-[4-(2,4-Difluoro-benzyloxy)-benzylsulfanyl]-indan-4-yloxy}-acetic acid] | –
12 | 183 to 185 °C | 1000 to 2000 nM | COc1ccc(COc2ccc(CSc3ccc(OCC(=O)O)c4c3CCC4)cc2)cc1 [Example 68, {7-[4-(4-Methoxy-benzyloxy)-benzylsulfanyl]-indan-4-yloxy}-acetic acid] | –
13 | 145 to 147 °C | 2000 to 5000 nM | O=C(O)COc1ccc(SCc2ccc(OCc3ccccc3)cc2)c2c1CCC2 [Example 69, [7-(4-Benzyloxy-benzylsulfanyl)-indan-4-yloxy]-acetic acid] | –
14 | 170 to 172 °C | 500 to 1000 nM | O=C(O)COc1ccc(SCc2ccc(OCc3ccc(Cl)cc3)cc2)c2c1CCC2 [Example 70, {7-[4-(4-Chloro-benzyloxy)-benzylsulfanyl]-indan-4-yloxy}-acetic acid] | –
15 | 158 to 160 °C | 500 to 1000 nM | O=C(O)COc1ccc(SCc2ccc(OCc3cc(Cl)ccc3Cl)cc2)c2c1CCC2 [Example 71, {7-[4-(2,5-Dichloro-benzyloxy)-benzylsulfanyl]-indan-4-yloxy}-acetic acid] | –
